Experimental data published in PMC4191062, “Development of αGlcN(1↔1)αMan-Based Lipid A Mimetics as a Novel Class of Potent Toll-like Receptor 4 Agonists” (Journal of Medicinal Chemistry, 2014).
“Also recorded” adds a separate entry of the source. Like-named read-outs stand apart in the source and are kept apart here.

Assays:
Type in all cases: cell-based
human dendritic cells [1] = experiment: Cytokine production in human monocyte-derived dendritic cells (Luminex); details: hDCs, 24 h
Method: Activated DCs were examined for the production of pro-inflammatory cytokines TNF-α, IL-6, and IL-12, which contribute to the modulation of the T cell response and innate effector functions.[57] The release of TNF-α and IL-6 reached nearly maximum levels (attained with 10 ng/mL LPS) at the α,α-GM-LAM 1 concentration of 1 ng/mL (Figure 7A).
Human peripheral blood monocytes were cultured for 6 days in GM-CSF and IL-4 to receive immature monocyte-derived DCs and were then stimulated with the indicated concentrations of 1 and 3 using 10 ng/mL LPS as positive control (solutions in PRMI containing 10% FCS and 0.005–0.01% DMSO). The amounts of IL-6, IL-12, IL-10, and TNF-α in the supernatants of the cells were analyzed after 24 h by Luminex. Results are representative of three independent experiments for 1 and of two experiments for 3. Mean values of duplicate examinations ± SD are presented.

human dendritic cells [2] = experiment: Maturation marker expression in human dendritic cells (flow cytometry); details: hDCs, 24 h; LPS 10 ng/ml
Description: To test the impact of selected α,α-GM-LAMs 1 and 3 on maturation of human dendritic cells (hDCs), immature monocyte-derived hDCs were stimulated with 1 and 3 in a wide concentration range or with E. coli LPS as positive control. DCs are able to persistently sense pathogen-associated molecular patterns and present antigens to T lymphocytes, thereby initiating an adaptive immune response.[7]
None of the α,α-GM-LAMs exerted cytotoxic effects on DCs, as determined by propidium iodide staining (data not shown). […]
stimulatory molecules CD86 as well as the antigen presenting structures MHC class I and MHC class II, which are necessary for the induction of an adaptive immune response (SI-Figure 5). […]
up-regulation of the inhibitory B7-H1 (CD272) and Sialoadhesin (CD169), which is known to be indirectly up-regulated in DCs due to release of type-I interferons. […]
stimulator not only of the NF-κB- but also of the IRF-pathway. Stimulation of DCs with the monophosphoryl α,α- […]
SI-Figure 5. Bisphosphoryl α,α-GM-LAM 1 and monophosphoryl α,α-GM-LAM 3 induce the expression of maturation markers in human DCs. […] The cells were then harvested and the surface expression level of the indicated markers was measured by flow cytometry. […]

[3] = biological target: hTLR4/hMD-2/CD14-transfected HEK293 cells (Homo sapiens, UniProt O00206+Q9Y6Y9); experiment: hTLR4/MD-2/CD14-transfected HEK293 (HEK-Blue) activation assay, NF-κB-dependent SEAP reporter; details: for concentration at which TLR4 saturation plateau was reached: NF-κB/SEAP dose response
Description: The propensity of the α,α-GM-LAMs 1–3 to stimulate TLR4-mediated immune signaling was first assessed in the hTLR4/hMD-2/CD14 transfected human embryonic kidney (HEK) 293 cells (HEK-Blue). Since we were particularly interested in the molecular recognition mechanisms implicated in the binding of LPS by the MD-2·TLR4 complex wherein the Lipid A/Re-LPS portion of LPS is exclusively involved, we evaluated the activities of α,α-GM-LAMs 1–3 compared to E. coliRe-LPS (Figure 1A). It has been previously shown that the minimum structural requirement for the expression of the highest cytokine-inducing potency resides in Re-LPS, which entails two 3-deoxy-D-manno-oct-2-ulosonic acid (Kdo) residues in addition to Lipid A (Supporting Information, SI-Figure 1A).[54],[55] Moreover, the Re-LPS has a defined molecular weight (MW) similar to the MW range for Lipid A mimetics (1.8–2.2 kDa), in contrast to wild-type LPS having variable MW (10–15 kDa), so that the direct comparison of a dose-dependent response between compounds 1–3 and Re-LPS is more appropriate. The TLR4-stimulating activity of Lipid A mimetics 1–3 was examined over a wide concentration range by monitoring of the activation of the NF-κB regulated signal transduction pathway via measuring the induction of secreted embryonic alkaline phosphatase (SEAP) and compared to the responses elicited by E. coliRe-LPS and SM-MPLA.
Growth conditions and activation assay were set as recommended by InvivoGen. The cells were stimulated with the solutions of compounds 1–3 or LPS/Re-LPS in DMEM supplemented by 10% FCS at the indicated concentrations. […] The compounds were added in a total volume of 20 μL to 25000 HEK-Blue hTLR4 cells in 180 μL plates and were incubated for 20–24 h at 37 °C and 5% CO2. SEAP levels were determined by incubation of 20 μL of challenged cell supernatants with 180 μL of detection reagent (QUANTI-Blue), and the color development was measured at 650 nm using a spectrophotometer (SpectraMAX 190). Data were combined from n = 3 independent experiments; error bars indicate standard error of the mean.
Supplementary SI-Figure 1
E. coli Re-LPS E. coli O111:B4
SI-Figure 1. (A) Dose-dependent activation of TLR4 signaling in hTLR4/hMD-2/hCD14 transfected HEK293 cells (HEK-Blue) by E. coli Re-LPS compared to E. coli O111:B4 LPS. [nM] concentrations were calculated from [ng/ml] concentrations based on the following molecular weights (MW): MWE. coli Re-LPS 2339 Da, MWE. coli O111:B4 LPS 10000 Da. (B) Dose-dependent activation of TLR4 signaling in hTLR4/hMD-2/hCD14 transfected HEK293 cells (HEK-Blue) by Lipid A mimetics 1- 3 compared to E. coli Re-LPS and S. minnesota MPLA. Non-linear curve fit (variable slope) was calculated using GraphPad Prism and is shown for the mean curves. Dotted lines indicate corresponding Ec50 values. Statistical analysis was performed on non-linear curve fits on individual datasets using an un-paired two-tailed t-test (*** indicates a p value < 0.001, ns indicates non-significant change). Top, bottom, hill slope and Ec50 values of non-linear curve fit on individual datasets are shown. […]

[4] = SEAP induction, 20–24 h, mean curve, nM calculated from ng/ml via MW, read-out: EC50 NF-κB activation
[5] = SEAP induction, mean curve, read-out: Ec50 (ng/ml) (converted)
[6] = dataset n1, read-out: Ec50 (ng/ml), non-linear curve fit on individual dataset (converted)
[7] = dataset n2, read-out: Ec50 (ng/ml), non-linear curve fit on individual dataset (converted)
[8] = dataset n3, read-out: Ec50 (ng/ml), non-linear curve fit on individual dataset (converted)

hTLR4/hMD-2/CD14-transfected HEK293 cells, sequence (O00206 24-839): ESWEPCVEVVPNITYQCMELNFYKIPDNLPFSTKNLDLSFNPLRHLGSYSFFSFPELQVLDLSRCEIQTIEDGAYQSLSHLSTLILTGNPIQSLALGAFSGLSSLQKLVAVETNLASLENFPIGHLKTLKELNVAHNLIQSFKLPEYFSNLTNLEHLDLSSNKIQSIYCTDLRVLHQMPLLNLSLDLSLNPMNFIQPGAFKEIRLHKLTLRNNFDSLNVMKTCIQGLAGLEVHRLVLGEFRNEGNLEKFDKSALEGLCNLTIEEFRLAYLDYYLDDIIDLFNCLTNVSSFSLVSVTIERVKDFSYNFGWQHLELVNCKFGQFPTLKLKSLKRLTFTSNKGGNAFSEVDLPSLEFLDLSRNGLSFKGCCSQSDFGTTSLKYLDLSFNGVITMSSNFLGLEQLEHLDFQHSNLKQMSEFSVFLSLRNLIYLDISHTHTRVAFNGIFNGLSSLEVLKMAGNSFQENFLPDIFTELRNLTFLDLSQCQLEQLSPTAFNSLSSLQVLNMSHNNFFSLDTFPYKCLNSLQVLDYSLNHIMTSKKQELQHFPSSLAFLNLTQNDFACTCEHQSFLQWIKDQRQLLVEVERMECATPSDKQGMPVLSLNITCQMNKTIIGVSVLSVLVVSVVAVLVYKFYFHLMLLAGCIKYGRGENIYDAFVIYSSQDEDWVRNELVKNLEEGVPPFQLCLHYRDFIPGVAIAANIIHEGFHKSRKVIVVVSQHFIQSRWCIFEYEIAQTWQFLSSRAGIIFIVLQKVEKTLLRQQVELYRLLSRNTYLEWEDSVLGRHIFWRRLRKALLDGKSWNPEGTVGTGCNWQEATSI
hTLR4/hMD-2/CD14-transfected HEK293 cells, sequence (Q9Y6Y9 17-160 limits assumed): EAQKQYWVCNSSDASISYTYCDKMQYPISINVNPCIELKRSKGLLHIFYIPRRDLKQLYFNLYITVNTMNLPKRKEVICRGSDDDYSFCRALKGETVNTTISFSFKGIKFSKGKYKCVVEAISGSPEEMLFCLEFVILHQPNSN

SMILES	DCs maturation and up-regulation of CD86, MHC class I and MHC class II compared to LPS (human dendritic cells [2])	concentration at which TLR4 saturation plateau was reached [3] [ng/mL]	EC50 [3, 4] [nM]	EC50 [3, 5] [nM]	Bottom of non-linear curve fit ([3]; dataset n1)	HillSlope of non-linear curve fit ([3]; dataset n1)	Top of non-linear curve fit ([3]; dataset n1)	EC50 [3, 6] [nM]	Bottom of non-linear curve fit ([3]; dataset n2)	HillSlope of non-linear curve fit ([3]; dataset n2)	Top of non-linear curve fit ([3]; dataset n2)	EC50 [3, 7] [nM]	Bottom of non-linear curve fit ([3]; dataset n3)	HillSlope of non-linear curve fit ([3]; dataset n3)	Top of non-linear curve fit ([3]; dataset n3)	EC50 [3, 8] [nM]	also measured
CCCCCCCCCCCCCC(=O)O[C@H](CCCCCCCCCCC)CC(=O)O[C@@H]1[C@@H](NC(=O)C[C@@H](CCCCCCCCCCC)OC(=O)CCCCCCCCCCC)[C@@H](O[C@H]2O[C@H](COP(=O)(O)O)[C@@H](OC(=O)C[C@@H](CCCCCCCCCCC)OC(=O)CCCCCCCCCCC)[C@H](O)[C@@H]2OC)O[C@H](CO)[C@H]1OP(=O)(O)O [Compound 1, 4-O-[(R)-3-(Dodecanoyloxy)tetradecanoyl]-2-O-methyl-6-O-phosphoryl-α-D-mannopyranosyl-(1↔1)-2-deoxy-2-[(R)-3-(dodecanoyloxy)tetradecanoylamino]-4-O-phosphoryl-3-O-[(R)-3-(tetradecanoyloxy)tetradecanoyl]-α-D-glucopyranoside]	as potent as by LPS; also recorded: as potent as that with LPS	5	0.4	0.424	0.212	1.282	1.369	0.505	0.225	1.341	1.312	0.352	0.215	1.257	1.348	0.421	concentration at which release of TNF-α and IL-6 reached nearly maximum levels (attained with 10 ng/mL LPS) (human dendritic cells [1]): 1 ng/mL; expression of IL-12 (human dendritic cells [1]): efficiently induced
CCCCCCCCCCCCCC(=O)O[C@H](CCCCCCCCCCC)CC(=O)O[C@@H]1[C@@H](NC(=O)C[C@@H](CCCCCCCCCCC)OC(=O)CCCCCCCCCCC)[C@@H](O[C@H]2O[C@H](CO)[C@@H](OC(=O)C[C@@H](CCCCCCCCCCC)OC(=O)CCCCCCCCCCC)[C@H](O)[C@@H]2OC)O[C@H](CO)[C@H]1OP(=O)(O)O [Compound 3, 4-O-[(R)-3-(Dodecanoyloxy)tetradecanoyl]-2-O-methyl-α-D-mannopyranosyl-(1↔1)-2-deoxy-2-[(R)-3-(dodecanoyloxy)tetradecanoylamino]-4-O-phosphoryl-3-O-[(R)-3-(tetradecanoyloxy)tetradecanoyl]-α-D-glucopyranoside]	less pronounced activation marker profile		31	30.8	0.217	1.120	1.425	30.5	0.221	1.170	1.426	28.2	0.216	1.145	1.453	34.1	release of TNF-α, IL-6, and IL-10 compared to 1 (human dendritic cells [1]): less efficient; activation profile compared to SM-MPLA ([3]; at concentrations above 10 ng/mL): more potent activation profile than SM-MPLA
CCCCCCCCCCCCCC(=O)O[C@H](CCCCCCCCCCC)CC(=O)O[C@@H]1[C@@H](NC(=O)C[C@@H](CCCCCCCCCCC)OC(=O)CCCCCCCCCCC)[C@@H](O[C@H]2O[C@H](COP(=O)(O)O)[C@@H](OC(=O)C[C@@H](CCCCCCCCCCC)OC(=O)CCCCCCCCC)[C@H](O)[C@@H]2OC)O[C@H](CO)[C@H]1OP(=O)(O)O [Compound 2, 4-O-[(R)-3-(Decanoyloxy)tetradecanoyl]-2-O-methyl-6-O-phosphoryl-α-mannopyranosyl-(1↔1)-2-deoxy-2-[(R)-3-(dodecanoyloxy)tetradecanoylamino]-4-O-phosphoryl-3-O-[(R)-3-(tetradecanoyloxy)tetradecanoyl]-α-D-glucopyranoside]		1	0.08	0.0804	0.216	1.193	1.330	0.0884	0.232	1.250	1.319	0.0827	0.236	1.246	1.320	0.0758	fold increase of TLR-4 stimulating activity on shortening lipid side chain at Man C-4 by 2×CH2 ([3]; 2 compared with 1): 5 fold
